Series [1] in a line: Metabolic stability in swine liver tissue homogenate. Type of series: in vitro ADME. To be noted: prodrug 20 μM, 37° C. The method, then: (§1) The representative Compounds of the Disclosure were screened for metabolic stability in swine jejunum/liver tissue homogenates, following our previously reported methods (Zimmermann et al., J. Med. Chem., 61(9):3918-29 (2018); Tenora et al., J. Med. Chem., 62(7):3524-38 (2019)). In brief, freshly collected tissues were homogenized by probe sonication in 9× volume of 0.1 M potassium phosphate buffer over ice. Post homogenization, prodrugs were spiked at a concentration of 20 μM (in triplicate) and incubated in an orbital shaker at 37° C. for 60 min. Final concentration of DMSO in the incubations was 0.2% v/v. At each time point (0, 30, 60 min), 100 μL of sample was precipitated with 300 μL of methanol containing internal standard (IS; losartan: 0.5 μM). […] After centrifugation, 50 μL of supernatant was diluted with 50 μL of water, vortexed and submitted for analysis. Prodrug disappearance over time was measured using liquid chromatography tandem mass spectrometry (LC-MS/MS).
(§2) The processed supernatants were analyzed on a Thermo Scientific Vanquish UPLC system (equipped with Vanquish autosampler, pumps, and column compartment) hyphenated to TSQ Altis mass spectrometer (Thermo Fisher Scientific Inc., Waltham MA). […] The autosampler was operated at 4° C. […] Peak area ratios obtained from peak area counts of analyte and internal standard were used to measure the disappearance of prodrugs.

Series [2] in a line: Efflux.
Series [3] in a line: Metabolic stability in swine jejunum (gut) tissue homogenate. Type of series: in vitro ADME. To be noted: prodrug 20 μM, 37° C. As to the method: as §1, §2

As for `CN(C)CC(=O)N[C@@H](Cc1ccc(F)cc1)C(=O)N[C@@H](CCC(=O)C=[N+]=[N-])C(=O)OC(C)(C)C` [Compound 22a, tert-Butyl (S)-6-diazo-2-((S)-2-(2-(dimethylamino)acetamido)-3-(4-fluorophenyl)propanamido)-5-oxohexanoate], the “Liver stability (% remaining at 60 min)” value in series [1] is given as 62 ± 1%. The Efflux in series [2] was 52.07.
Take `CC(=O)NCC(=O)N[C@@H](CCC(=O)C=[N+]=[N-])C(=O)OC(C)(C)C` [Compound 14a, tert-Butyl (S)-2-(2-acetamidoacetamido)-6-diazo-5-oxohexanoate]: the “Liver stability (% remaining at 60 min)” value in series [1] came out at 88 ± 1%. Further, in series [3], the “Gut Stability (% remaining at 60 min)” value is recorded as 96 ± 0%.
In the same order, the values of `CN(C)CC(=O)N[C@@H](Cc1cn(C)c2ccccc12)C(=O)N[C@@H](CCC(=O)C=[N+]=[N-])C(N)=O` [Compound 31f, (S)-6-Diazo-2-((S)-2-(2-(dimethylamino)acetamido)-3-(1-methyl-1H-indol-3-yl)propanamido)-5-oxohexanamide] are 49 ± 0% and 89 ± 2%.
The matching figures for `CC(C)OC(=O)[C@H](CCC(=O)C=[N+]=[N-])NC(=O)[C@H](Cc1c[nH]c2ccccc12)NC(=O)C1CC1` [Compound 8e, Isopropyl (S)-2-((S)-2-(cyclopropanecarboxamido)-3-(1H-indol-3-yl)propanamido)-6-diazo-5-oxohexanoate]: 7 ± 0% and 9 ± 0%.
As to `CC(C)CC(=O)N[C@@H](Cc1c[nH]c2ccccc12)C(=O)N[C@@H](CCC(=O)C=[N+]=[N-])C(=O)OC(C)C` [Compound 8b, Isopropyl (S)-2-((S)-3-(1H-indol-3-yl)-2-(3-methylbutanamido)propanamido)-6-diazo-5-oxohexanoate], the “Liver stability (% remaining at 60 min)” value in series [1] stood at 1 ± 0%. For the same molecule, the “Gut Stability (% remaining at 60 min)” value in series [3] is recorded as 6 ± 1%.
The matching figures for `CC(C)OC(=O)[C@H](CCC(=O)C=[N+]=[N-])NC(=O)[C@H](Cc1c[nH]c2ccccc12)NC(=O)CN(C)C` [Compound 8f, Isopropyl (S)-6-diazo-2-((S)-2-(2-(dimethylamino)acetamido)-3-(1H-indol-3-yl)propanamido)-5-oxohexanoate]: 2 ± 0% and 2 ± 0%.
With `CN(C)CC(=O)N[C@@H](Cc1ccccc1)C(=O)N[C@@H](CCC(=O)C=[N+]=[N-])C(N)=O` [Compound 31e, (S)-6-Diazo-2-((S)-2-(2-(dimethylamino)acetamido)-3-phenylpropanamido)-5-oxohexanamide], the “Liver stability (% remaining at 60 min)” value in series [1] came to 39 ± 0%.
Take `CC(=O)N[C@@H](Cc1cncn1C)C(=O)N[C@@H](CCC(=O)C=[N+]=[N-])C(=O)OC(C)(C)C` [Compound 18a, tert-Butyl (S)-2-((S)-2-acetamido-3-(1-methyl-1H-imidazol-5-yl)propanamido)-6-diazo-5-oxohexanoate]: the “Liver stability (% remaining at 60 min)” value in series [1] stood at 105 ± 2%. Further, the “Gut Stability (% remaining at 60 min)” value in series [3] was 93 ± 1%.
In the case of `CC(C)OC(=O)[C@H](CCC(=O)C=[N+]=[N-])NC(=O)[C@H](Cc1c[nH]c2ccccc12)NC(=O)C(C)C` [Compound 8c, Isopropyl (S)-2-((S)-3-(1H-indol-3-yl)-2-isobutyramidopropanamido)-6-diazo-5-oxohexanoate], the “Liver stability (% remaining at 60 min)” value in series [1] turned out to be 13 ± 0%. In addition, the “Gut Stability (% remaining at 60 min)” value in series [3] is given as 13 ± 7%.
The matching figures for `CC(C)OC(=O)[C@H](CCC(=O)C=[N+]=[N-])NC(=O)[C@H](Cc1c[nH]c2ccccc12)NC(=O)CN1CCOCC1` [Compound 8i, Isopropyl (S)-2-((S)-3-(1H-indol-3-yl)-2-(2-morpholinoacetamido)propanamido)-6-diazo-5-oxohexanoate]: 0 ± 0% and 0 ± 0%.
For the molecule `CC(C)C[C@H](NC(=O)CN(C)C)C(=O)N[C@@H](CCC(=O)C=[N+]=[N-])C(N)=O` [Compound 31d, (S)-6-Diazo-2-((S)-2-(2-(dimethylamino)acetamido)-4-methylpentanamido)-5-oxohexanamide], the “Liver stability (% remaining at 60 min)” value in series [1] stood at 90 ± 1%.
With `Cn1cc(C[C@H](NC(=O)C(Cl)Cl)C(=O)N[C@@H](CCC(=O)C=[N+]=[N-])C(=O)OC(C)(C)C)c2ccccc21` [Compound 12h, tert-Butyl (S)-6-diazo-2-((S)-2-(2,2-dichloroacetamido)-3-(1-methyl-1H-indol-3-yl)propanamido)-5-oxohexanoate], in series [1], the “Liver stability (% remaining at 60 min)” value turned out to be 50 ± 3%.
The same measure, in the same setting: the same measure for `CN(C)CC(=O)N[C@@H](CC(C)(C)C)C(=O)N[C@@H](CCC(=O)C=[N+]=[N-])C(=O)OC(C)(C)C` [Compound 24a, tert-Butyl (S)-6-diazo-2-((S)-2-(2-(dimethylamino)acetamido)-4,4-dimethylpentanamido)-5-oxohexanoate]: 78 ± 1%.
Turning to `CC(=O)N[C@@H](Cc1cccnc1)C(=O)N[C@@H](CCC(=O)C=[N+]=[N-])C(=O)OC(C)(C)C` [Compound 17a, tert-Butyl (S)-2-((S)-2-acetamido-3-(pyridin-3-yl)propanamido)-6-diazo-5-oxohexanoate], the “Liver stability (% remaining at 60 min)” value in series [1] was 103 ± 3%. Further, the “Gut Stability (% remaining at 60 min)” value in series [3] is reported as 96 ± 1%.
Turning to `CN(C)CC(=O)NCC(=O)N[C@@H](CCC(=O)C=[N+]=[N-])C(N)=O` [Compound 31c, (S)-6-Diazo-2-(2-(2-(dimethylamino)acetamido)acetamido)-5-oxohexanamide], the “Liver stability (% remaining at 60 min)” value in series [1] turned out to be 89 ± 4%.
Turning to `CCN(CC)CC(=O)N[C@@H](Cc1c[nH]c2ccccc12)C(=O)N[C@@H](CCC(=O)C=[N+]=[N-])C(=O)OC(C)C` [Compound 8g, Isopropyl (S)-6-diazo-2-((S)-2-(2-(diethylamino)acetamido)-3-(1H-indol-3-yl)propanamido)-5-oxohexanoate], in series [1], the “Liver stability (% remaining at 60 min)” value was 1 ± 0%. The “Gut Stability (% remaining at 60 min)” value in series [3] is given as 1 ± 0%.
`C=CCOC(=O)[C@H](CCC(=O)C=[N+]=[N-])NC(C)=O` [Compound 5l, Allyl (S)-2-acetamido-6-diazo-5-oxohexanoate]: the “Liver stability (% remaining at 60 min)” value in series [1] was 12 ± 0%.
For the molecule `CCCC(=O)N[C@@H](Cc1c[nH]c2ccccc12)C(=O)N[C@@H](CCC(=O)C=[N+]=[N-])C(=O)OC(C)C` [Compound 8a, Isopropyl (S)-2-((S)-2-butyramido-3-(1H-indol-3-yl)propanamido)-6-diazo-5-oxohexanoate], in series [1], the “Liver stability (% remaining at 60 min)” value is listed as 5 ± 1%. In addition, in series [3], the “Gut Stability (% remaining at 60 min)” value is on record as 12 ± 1%.
The matching figures for `CN(C)CC(=O)N[C@@H](Cc1cncn1C)C(=O)N[C@@H](CCC(=O)C=[N+]=[N-])C(=O)OC(C)(C)C` [Compound 18b, tert-Butyl (S)-6-diazo-2-((S)-2-(2-(dimethylamino)acetamido)-3-(1-methyl-1H-imidazol-5-yl)propanamido)-5-oxohexanoate]: 100 ± 3% and 98 ± 2%.
On to `CC(C)OC(=O)[C@H](CCC(=O)C=[N+]=[N-])NC(=O)[C@H](Cc1c[nH]c2ccccc12)NC(=O)CN1CCN(C)CC1` [Compound 8j, Isopropyl (S)-2-((S)-3-(1H-indol-3-yl)-2-(2-(4-methylpiperazin-1-yl)acetamido)propanamido)-6-diazo-5-oxohexanoate], for which the “Liver stability (% remaining at 60 min)” value in series [1] is on record as 2 ± 0%.
Same read-out and setting: the same measure for `CC(C)OC(=O)[C@H](CCC(=O)C=[N+]=[N-])NC(=O)C(Cl)Cl` [Compound 5e, Isopropyl (S)-6-diazo-2-(2,2-dichloroacetamido)-5-oxohexanoate]: 0 ± 0%.
In the case of `CC(C)OC(=O)[C@H](CCC(=O)C=[N+]=[N-])NC(=O)[C@H](Cc1c[nH]c2ccccc12)NC(=O)c1cccnc1` [Compound 8l, Isopropyl (S)-2-((S)-3-(1H-indol-3-yl)-2-(nicotinamido)propanamido)-6-diazo-5-oxohexanoate], the “Liver stability (% remaining at 60 min)” value in series [1] is recorded as 0 ± 0%. Moreover, in series [3], the “Gut Stability (% remaining at 60 min)” value worked out at 2 ± 0%.
In the same order, the values of `CC(C)OC(=O)[C@H](CCC(=O)C=[N+]=[N-])NC(=O)[C@H](Cc1c[nH]c2ccccc12)NC(=O)C(C)(C)C` [Compound 8d, Isopropyl (S)-2-((S)-3-(1H-indol-3-yl)-2-pivalamidopropanamido)-6-diazo-5-oxohexanoate] are 2 ± 0% and 9 ± 1%.
For the molecule `CC(C)OC(=O)[C@H](CCC(=O)C=[N+]=[N-])NC(=O)[C@H](Cc1c[nH]c2ccccc12)NC(=O)c1ccncc1` [Compound 8m, Isopropyl (S)-2-((S)-3-(1H-indol-3-yl)-2-(isonicotinamido)propanamido)-6-diazo-5-oxohexanoate], the “Liver stability (% remaining at 60 min)” value in series [1] was 0 ± 0%.
The same measure, in the same setting: the same measure for `CN(C)[C@@H](Cc1ccccc1)C(=O)N[C@@H](CCC(=O)C=[N+]=[N-])C(=O)OC(C)(C)C` [Compound 26a, tert-Butyl (S)-6-diazo-2-((S)-2-(dimethylamino)-3-phenylpropanamido)-5-oxohexanoate]: 71 ± 0%.

The values above are taken from patent US20240246902A1, “PRODRUGS OF 6-DIAZO-5-OXO-L-NORLEUCINE” (THE JOHNS HOPKINS UNIVERSITY, priority 2021, published 2024).
